Laboratory results: PubChem BioAssay AID248 (DTP/NCI, 2004)
“And” between values parts separate entries of the source, which are not always exact repeats. Equal entries are not always repeated. Inconclusive results and toxic doses are left out. No stated cut-off is given here; in the data, active means T/C of 150% or more; inactive means T/C below 125%.

Tested on: L1210 leukemia ip in BDF1 mice, survival T/C
Experiment: NCI In Vivo Anticancer Drug Screen. Data for tumor model L1210 Leukemia (intraperitoneal) in B6D2F1 (BDF1) mice
Conditions: endpoint: mean survival time, higher = longer survival
In short: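 Survival endpoint. Drug-treated group vs vehicle group, expressed as T divided by C. Tumor passaged by transplantation.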

[1] = dose: 100.0 mg/kg/injection, schedule: Q01DX009 (ip), vehicle: saline with Tween-80
[2] = dose: 200.0 mg/kg/injection, schedule: Q01DX009 (ip), vehicle: saline with Tween-80
[3] = dose: 400.0 mg/kg/injection, schedule: Q01DX009 (ip), vehicle: saline with Tween-80
[4] = dose: 100.0 mg/kg/injection, schedule: Q01DX009 (ip), vehicle: Klucel (hydroxypropylcellulose) (HPC)
[5] = dose: 200.0 mg/kg/injection, schedule: Q01DX009 (ip), vehicle: Klucel (hydroxypropylcellulose) (HPC)
[6] = dose: 400.0 mg/kg/injection, schedule: Q01DX009 (ip), vehicle: Klucel (hydroxypropylcellulose) (HPC)
[7] = dose: 100.0 mg/kg/injection, schedule: Q04DX002 (ip), vehicle: Klucel (hydroxypropylcellulose) (HPC)
[8] = dose: 200.0 mg/kg/injection, schedule: Q04DX002 (ip), vehicle: Klucel (hydroxypropylcellulose) (HPC)
[9] = dose: 100.0 mg/kg/injection, schedule: Q01DX001 (ip), vehicle: saline
[10] = dose: 200.0 mg/kg/injection, schedule: Q01DX001 (ip), vehicle: saline
[11] = dose: 400.0 mg/kg/injection, schedule: Q01DX001 (ip), vehicle: saline
[12] = dose: 100.0 mg/kg/injection, schedule: Q04DX002 (ip), vehicle: saline with Tween-80
[13] = dose: 200.0 mg/kg/injection, schedule: Q04DX002 (ip), vehicle: saline with Tween-80
[14] = dose: 400.0 mg/kg/injection, schedule: Q04DX002 (ip), vehicle: saline with Tween-80
[15] = dose: 50.0 mg/kg/injection, schedule: Q01DX009 (ip), vehicle: saline
[16] = dose: 100.0 mg/kg/injection, schedule: Q04DX003 (ip), vehicle: saline with Tween-80
[17] = dose: 200.0 mg/kg/injection, schedule: Q04DX003 (ip), vehicle: saline with Tween-80
[18] = dose: 400.0 mg/kg/injection, schedule: Q04DX003 (ip), vehicle: saline with Tween-80
[19] = dose: 50.0 mg/kg/injection, schedule: Q04DX003 (ip), vehicle: saline with Tween-80
[20] = dose: 100.0 mg/kg/injection, schedule: Q01DX009 (ip), vehicle: saline
[21] = dose: 200.0 mg/kg/injection, schedule: Q01DX009 (ip), vehicle: saline

Measured: T/C

C[Si](C)(C)Oc1cccc([Si](C)(C)C)c1
inactive: [1] 97 % of control | [2] 95 % of control | [3] 92 % of control

CSc1cccc(N2C(=O)CC(Sc3ccccc3N)C2=O)c1 (stereo unspecified)
inactive: [4] 90 % of control | [5] 95 % of control | [6] 98 % of control

CC1(C)C(N2CCCC2)N(C(=O)c2ccccc2)SC12c1ccccc1-c1ccccc12 (stereo unspecified)
inactive: [7] 102 % of control | [8] 105 % of control | dose: 400.0 mg/kg/injection, schedule: Q04DX002 (ip), vehicle: Klucel (hydroxypropylcellulose) (HPC) 98 % of control

NC(=O)c1cc(O)c(O)c(O)c1
inactive: [9] 102 % of control | [10] 102 % of control | [11] 102 % of control

NC(=O)C(O)C(O)C(O)C(O)CCl (stereo unspecified)
inactive: dose: 50.0 mg/kg/injection, schedule: Q04DX002 (ip), vehicle: saline with Tween-80 96 % of control | [12] 93 % of control | [13] 98 % of control | [14] 96 % of control

O=C(CCN1CCCCC1)c1ccccc1
inactive: dose: 5.0 mg/kg/injection, schedule: Q04DX003 (ip), vehicle: saline 96 % of control | dose: 10.0 mg/kg/injection, schedule: Q04DX003 (ip), vehicle: saline 103 % of control | dose: 20.0 mg/kg/injection, schedule: Q04DX003 (ip), vehicle: saline 94 % of control

CC(C)(C)c1ccc(C(C)(C)C)c(O)c1
inactive: dose: 25.0 mg/kg/injection, schedule: Q04DX002 (ip), vehicle: Klucel (hydroxypropylcellulose) (HPC) 92 % of control and 90 % of control | dose: 50.0 mg/kg/injection, schedule: Q04DX002 (ip), vehicle: Klucel (hydroxypropylcellulose) (HPC) 95 % of control and 96 % of control | [7] 92 % of control and 104 % of control | [8] 92 % of control and 86 % of control

OCC#CC(O)c1ccccc1 (stereo unspecified)
inactive: dose: 12.5 mg/kg/injection, schedule: Q01DX001 (ip), vehicle: acetone 94 % of control | dose: 12.5 mg/kg/injection, schedule: Q01DX009 (ip), vehicle: saline 94 % of control | dose: 12.5 mg/kg/injection, schedule: Q04DX003 (ip), vehicle: acetone 97 % of control | dose: 12.5 mg/kg/injection, schedule: Q04DX003 (ip), vehicle: saline 96 % of control | dose: 25.0 mg/kg/injection, schedule: Q01DX001 (ip), vehicle: acetone 97 % of control | dose: 25.0 mg/kg/injection, schedule: Q01DX009 (ip), vehicle: saline 92 % of control | dose: 25.0 mg/kg/injection, schedule: Q04DX003 (ip), vehicle: saline 96 % of control | dose: 50.0 mg/kg/injection, schedule: Q01DX001 (ip), vehicle: acetone 92 % of control | [15] 95 % of control | dose: 50.0 mg/kg/injection, schedule: Q04DX003 (ip), vehicle: acetone 95 % of control | dose: 50.0 mg/kg/injection, schedule: Q04DX003 (ip), vehicle: saline 95 % of control | dose: 75.0 mg/kg/injection, schedule: Q01DX009 (ip), vehicle: saline 98 % of control | dose: 115.0 mg/kg/injection, schedule: Q01DX009 (ip), vehicle: saline 107 % of control

C[n+]1cc(I)cc2ccccc21
inactive: dose: 50.0 mg/kg/injection, schedule: Q01DX001 (ip), vehicle: carboxymethylcellulose (CMC) 97 % of control | dose: 100.0 mg/kg/injection, schedule: Q01DX001 (ip), vehicle: carboxymethylcellulose (CMC) 103 % of control | dose: 200.0 mg/kg/injection, schedule: Q01DX001 (ip), vehicle: carboxymethylcellulose (CMC) 103 % of control | dose: 400.0 mg/kg/injection, schedule: Q01DX001 (ip), vehicle: carboxymethylcellulose (CMC) 101 % of control

CCOC(=O)CN(CC(=O)OCC)CC(O)C(Cl)(Cl)Cl (stereo unspecified)
inactive: [1] 106 % of control | [16] 96 % of control | [2] 93 % of control | [17] 101 % of control | [3] 104 % of control | [18] 98 % of control

CCCCCCCC(=N)OCC
inactive: dose: 50.0 mg/kg/injection, schedule: Q01DX009 (ip), vehicle: saline with Tween-80 97 % of control | [19] 104 % of control | dose: 100.0 mg/kg/injection, schedule: Q01DX001 (ip), vehicle: saline with Tween-80 94 % of control | [1] 110 % of control | [16] 93 % of control | dose: 200.0 mg/kg/injection, schedule: Q01DX001 (ip), vehicle: saline with Tween-80 104 % of control | [17] 87 % of control

NNc1ccc(C(=O)O)cc1
inactive: [4] 100 % of control | [1] 98 % of control and 101 % of control | dose: 100.0 mg/kg/injection, schedule: Q04DX003 (ip), vehicle: Klucel (hydroxypropylcellulose) (HPC) 102 % of control | [16] 100 % of control and 101 % of control | [5] 96 % of control | [2] 93 % of control and 95 % of control | dose: 200.0 mg/kg/injection, schedule: Q04DX003 (ip), vehicle: Klucel (hydroxypropylcellulose) (HPC) 91 % of control | [17] 96 % of control and 108 % of control | [6] 100 % of control | [3] 117 % of control and 91 % of control | dose: 400.0 mg/kg/injection, schedule: Q04DX003 (ip), vehicle: Klucel (hydroxypropylcellulose) (HPC) 96 % of control | [18] 94 % of control and 96 % of control

CC(=O)c1ccc[n+](C)c1
inactive: [15] 102 % of control | [20] 100 % of control | [21] 91 % of control

O=C(O)C1(O)CCCCC1
inactive: [9] 104 % of control | [20] 100 % of control | dose: 100.0 mg/kg/injection, schedule: Q04DX002 (ip), vehicle: saline 104 % of control | dose: 100.0 mg/kg/injection, schedule: Q04DX003 (ip), vehicle: saline 98 % of control | [10] 110 % of control | dose: 200.0 mg/kg/injection, schedule: Q04DX002 (ip), vehicle: saline 93 % of control | dose: 200.0 mg/kg/injection, schedule: Q04DX003 (ip), vehicle: saline 113 % of control | [11] 110 % of control | dose: 400.0 mg/kg/injection, schedule: Q04DX003 (ip), vehicle: saline 101 % of control

N#CCCN(Cc1cccnc1)CN1C(=O)c2ccccc2C1=O
inactive: [12] 91 % of control | [13] 97 % of control | [14] 102 % of control

Cc1ncc(C#N)c(=O)[nH]1
inactive: dose: 25.0 mg/kg/injection, schedule: Q04DX003 (ip), vehicle: saline with Tween-80 92 % of control | [19] 90 % of control | [16] 90 % of control

CC(=O)NNC(=O)c1ccccc1
inactive: [1] 101 % of control | [20] 106 % of control | [16] 106 % of control | [2] 109 % of control | [21] 113 % of control | [17] 108 % of control | [18] 101 % of control

CC(=O)n1cc(CS)c(=O)[nH]c1=O
inactive: [9] 106 % of control
